Experimental data from ChEMBL document CHEMBL5365490, “Enhanced tumor specific drug release by hypoxia sensitive dual-prodrugs based on 2-nitroimidazole” (Bioorg Med Chem Lett, 2023).
Blank lines part the entries; values can stand above or below the compound they belong to. The source made the active and inactive calls. The calls are words filed in the database; no cut-off is given here.

What was measured:
[1] = Drug metabolism in human MIA PaCa-2 cells homogenates assessed as gemcitabine formation incubated for 24 hrs by LC/MS analysis; type: ADME, cell-based; conditions: mia paca-2, 24 h
[2] = Chemical stability of compound in PBS at pH 7.4 assessed as remaining parent compound after 1 hrs of incubation by LC/MS analysis; type: physicochemical; conditions: buffer, pH 7.4, 1 h
[3] = Stability of compound in human MIA Paca-2 cells homogenates assessed as drug degradation incubated for 6 hrs by LC/MS analysis; type: ADME, cell-based; conditions: MIA PaCa-2 cell homogenates, read-out: Drug degradation
[4] = Drug metabolism in human MIA PaCa-2 cells homogenates assessed as (S)-2-(2,3-dichloro-4H-thieno[3,2-b]pyrrole-5-carboxamido)-3-(2-nitro-1H-imidazol-1-yl)propanoic acid formation incubated for 24 hrs by LC/MS analysis; type: ADME, cell-based; conditions: mia paca-2, 24 h
[5] = Half life in PBS buffer at pH 7.4 measured upto 72 hrs by LC/MS analysis; type: physicochemical
[6] = Chemical stability of compound in PBS at pH 7.4 assessed as remaining parent compound incubated for 6 hrs by LC/MS analysis; type: physicochemical; conditions: buffer, pH 7.4, 6 h
MIA PaCa-2 [7] = assay: Antiproliferative activity against human MIA-PaCa-2 cells assessed as reduction in cell viability > 1 uM measured for 72 hrs under hypoxia condition by MTT assay; type: functional, cell-based
[8] = Stability of compound in human MIA Paca-2 cells homogenates assessed as remaining parent compound incubated for 24 hrs by LC/MS analysis; type: ADME, cell-based; conditions: mia paca-2, 24 h
[9] = Stability of compound in human MIA Paca-2 cells homogenates assessed as remaining parent compound incubated for 6 hrs by LC/MS analysis; type: ADME, cell-based; conditions: mia paca-2, 6 h
[10] = Chemical stability of compound in PBS at pH 7.4 assessed as remaining parent compound incubated for 24 hrs by LC/MS analysis; type: physicochemical; conditions: buffer, pH 7.4, 24 h
MIA PaCa-2 [11] = assay: Antiproliferative activity against human MIA-PaCa-2 cell assessed as inhibition of cell growth > 0.1 uM measured for 72 hrs under normoxia condition by MTT assay; type: functional, cell-based
MIA PaCa-2 [12] = assay: Antiproliferative activity against human MIA-PaCa-2 cells assessed as reduction in cell viability > 0.1 uM measured for 72 hrs under hypoxia condition by MTT assay; type: functional, cell-based

Drug metabolism [1]: Metabolite_Detected | Stability [2]: Unstable | metabolised at 6 h [3]: > 50% | Drug metabolism [4]: Metabolite_Detected
Structure (SMILES): Nc1ccn([C@@H]2O[C@H](COC(=O)[C@H](Cn3ccnc3[N+](=O)[O-])NC(=O)c3cc4sc(Cl)c(Cl)c4[nH]3)[C@@H](O)C2(F)F)c(=O)n1

half-life [5]: 40 h
Structure (SMILES): Nc1nccn1C[C@@H](NC(=O)c1cc2sc(Cl)c(Cl)c2[nH]1)C(=O)Nc1ccc(COC(=O)Nc2ccn([C@@H]3O[C@H](CO)[C@@H](O)C3(F)F)c(=O)n2)cc1

Stability [6]: Stable | Stability [8]: Stable | Stability [9]: Stable | Stability [10]: Stable
Structure (SMILES): O=C(Nc1ccn([C@@H]2O[C@H](CO)[C@@H](O)C2(F)F)c(=O)n1)OCc1ccc(NC(=O)[C@@H](Cn2ccnc2[N+](=O)[O-])NC(=O)c2cc3sc(Cl)c(Cl)c3[nH]2)cc1
Activity (MIA PaCa-2 [7]): Active

Structure (SMILES): Nc1ccn([C@@H]2O[C@H](CO)[C@@H](O)C2(F)F)c(=O)n1
Activity (MIA PaCa-2 [11]): Active | Activity (MIA PaCa-2 [12]): Active
